Earlier results in PMC9516332 (Frontiers in Oncology, 2022).
Read-outs that look alike come from different tables or passages of the source.

Assays:
Settings in all cases: cited from earlier work
[1] = molecular target: panel of 255 wild-type kinases (Homo sapiens, UniProt Q13177)
[2] = molecular target: panel of 255 wild-type kinases (Homo sapiens, UniProt O00311)
[3] = molecular target: T1, panel of 255 wild-type kinases (Homo sapiens, UniProt O94806)
T1 sequence (O94806 1-890): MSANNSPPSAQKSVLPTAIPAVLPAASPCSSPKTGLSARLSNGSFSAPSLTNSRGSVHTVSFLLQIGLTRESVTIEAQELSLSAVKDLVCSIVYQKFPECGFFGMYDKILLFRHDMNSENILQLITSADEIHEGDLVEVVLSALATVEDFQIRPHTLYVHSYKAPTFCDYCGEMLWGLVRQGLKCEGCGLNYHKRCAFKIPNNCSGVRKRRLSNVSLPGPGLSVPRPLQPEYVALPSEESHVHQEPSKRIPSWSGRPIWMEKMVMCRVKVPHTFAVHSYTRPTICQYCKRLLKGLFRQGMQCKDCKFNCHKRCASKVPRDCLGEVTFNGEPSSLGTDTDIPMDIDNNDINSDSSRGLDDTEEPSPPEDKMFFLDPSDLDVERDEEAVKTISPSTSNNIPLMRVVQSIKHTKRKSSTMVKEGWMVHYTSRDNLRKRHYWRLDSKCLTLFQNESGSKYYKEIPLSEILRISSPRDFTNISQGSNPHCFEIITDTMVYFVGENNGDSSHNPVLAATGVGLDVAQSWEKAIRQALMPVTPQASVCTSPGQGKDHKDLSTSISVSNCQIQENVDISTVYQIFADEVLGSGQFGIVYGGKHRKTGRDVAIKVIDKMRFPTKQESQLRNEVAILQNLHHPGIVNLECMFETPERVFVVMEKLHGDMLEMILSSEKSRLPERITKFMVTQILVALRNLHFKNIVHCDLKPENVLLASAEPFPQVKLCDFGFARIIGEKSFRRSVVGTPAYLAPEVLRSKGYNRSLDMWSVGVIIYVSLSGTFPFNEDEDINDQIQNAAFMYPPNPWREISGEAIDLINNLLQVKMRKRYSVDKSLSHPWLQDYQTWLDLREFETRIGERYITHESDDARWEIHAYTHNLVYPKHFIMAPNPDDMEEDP

[4] = molecular target: panel of 255 wild-type kinases (Homo sapiens, UniProt O60674)
[5] = molecular target: panel of 255 wild-type kinases (Homo sapiens, UniProt P24941)
[6] = molecular target: panel of 255 wild-type kinases (Homo sapiens, UniProt P53350)
[7] = molecular target: panel of 255 wild-type kinases (Homo sapiens, UniProt Q9Y463)
[8] = molecular target: T2, panel of 255 wild-type kinases (Homo sapiens, UniProt P36888)
T2 sequence (P36888 27-993): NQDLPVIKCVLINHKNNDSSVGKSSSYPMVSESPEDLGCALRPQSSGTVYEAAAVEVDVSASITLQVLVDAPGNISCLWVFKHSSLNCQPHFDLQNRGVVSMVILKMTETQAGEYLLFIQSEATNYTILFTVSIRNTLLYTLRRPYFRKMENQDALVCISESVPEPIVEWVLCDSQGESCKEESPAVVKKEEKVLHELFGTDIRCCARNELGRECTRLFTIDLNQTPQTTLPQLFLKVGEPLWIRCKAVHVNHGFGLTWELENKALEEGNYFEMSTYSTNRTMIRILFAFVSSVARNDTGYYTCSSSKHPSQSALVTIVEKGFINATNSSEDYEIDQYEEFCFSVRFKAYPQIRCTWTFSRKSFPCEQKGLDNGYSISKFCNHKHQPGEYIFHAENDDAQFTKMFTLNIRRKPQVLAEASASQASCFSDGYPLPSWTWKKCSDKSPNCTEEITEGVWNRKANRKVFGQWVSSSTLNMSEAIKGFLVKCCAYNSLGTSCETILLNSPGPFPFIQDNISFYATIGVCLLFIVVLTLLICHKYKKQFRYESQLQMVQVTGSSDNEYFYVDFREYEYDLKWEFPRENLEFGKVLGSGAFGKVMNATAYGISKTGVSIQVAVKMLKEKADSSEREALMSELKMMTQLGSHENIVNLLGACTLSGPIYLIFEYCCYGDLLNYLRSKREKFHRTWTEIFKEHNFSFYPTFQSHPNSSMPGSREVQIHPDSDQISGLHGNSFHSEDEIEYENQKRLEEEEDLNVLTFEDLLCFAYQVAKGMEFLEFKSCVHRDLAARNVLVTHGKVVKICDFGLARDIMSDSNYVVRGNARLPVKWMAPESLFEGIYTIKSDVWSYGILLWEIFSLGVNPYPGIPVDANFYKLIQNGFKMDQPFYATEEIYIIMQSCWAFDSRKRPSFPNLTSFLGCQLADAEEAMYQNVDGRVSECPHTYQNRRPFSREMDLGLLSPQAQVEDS

[9] = molecular target: panel of 255 wild-type kinases (Homo sapiens, UniProt Q9H422)
[10] = molecular target: panel of 255 wild-type kinases (Homo sapiens, UniProt Q9Y6E0)
[11] = PAK2, 1 µmol/L single concentration, ref DOI: 10.1158/1535-7163.MCT-18-0877
[12] = CDC7/ASK kinase assay, 1 µmol/L single concentration, ref DOI: 10.1158/1535-7163.MCT-18-0877
[13] = kinase PKD3, 1 µmol/L single concentration, ref DOI: 10.1158/1535-7163.MCT-18-0877
[14] = kinase JAK2, 1 µmol/L single concentration, ref DOI: 10.1158/1535-7163.MCT-18-0877
[15] = CDK2/CycA2 kinase assay, 1 µmol/L single concentration, ref DOI: 10.1158/1535-7163.MCT-18-0877
[16] = CDK2/CycE1 kinase assay, 1 µmol/L single concentration, ref DOI: 10.1158/1535-7163.MCT-18-0877
[17] = kinase PLK1, 1 µmol/L single concentration, ref DOI: 10.1158/1535-7163.MCT-18-0877
[18] = kinase DYRK1B, 1 µmol/L single concentration, ref DOI: 10.1158/1535-7163.MCT-18-0877
[19] = kinase FLT3, 1 µmol/L single concentration, ref DOI: 10.1158/1535-7163.MCT-18-0877
[20] = kinase HIPK3, 1 µmol/L single concentration, ref DOI: 10.1158/1535-7163.MCT-18-0877
[21] = MST3, 1 µmol/L single concentration, ref DOI: 10.1158/1535-7163.MCT-18-0877
[22] = CDC7/ASK kinase assay, 1 µmol/L single concentration, ref DOI: 10.1371/journal.pone.0092146
[23] = kinase PKD3, 1 µmol/L single concentration, ref DOI: 10.1371/journal.pone.0092146
[24] = kinase PLK1, 1 µmol/L single concentration, ref DOI: 10.1371/journal.pone.0092146
[25] = kinase DYRK1B, 1 µmol/L single concentration, ref DOI: 10.1371/journal.pone.0092146
[26] = kinase FLT3, 1 µmol/L single concentration, ref DOI: 10.1371/journal.pone.0092146
[27] = kinase HIPK3, 1 µmol/L single concentration, ref DOI: 10.1371/journal.pone.0092146
[28] = MST3, 1 µmol/L single concentration, ref DOI: 10.1371/journal.pone.0092146
[29] = PAK2, 1 µmol/L single concentration, ref DOI: 10.1371/journal.pone.0092146
[30] = kinase JAK2, 1 µmol/L single concentration, ref DOI: 10.1371/journal.pone.0092146
[31] = CDK2/CycA2 kinase assay, 1 µmol/L single concentration, ref DOI: 10.1371/journal.pone.0092146
[32] = CDK2/CycE1 kinase assay, 1 µmol/L single concentration, ref DOI: 10.1371/journal.pone.0092146

Compound	%-inhibition, PAK2 [1, 11] [%]	%-inhibition CDC7/ASK [2, 12] [%]	%-inhibition at 1 µmol/L, PKD3 [3, 13] [%]	%-inhibition at 1 µmol/L, JAK2 [4, 14] [%]	%-inhibition CDK2/CycA2 [5, 15] [%]	%-inhibition CDK2/CycE1 [5, 16] [%]	%-inhibition at 1 µmol/L, PLK1 [6, 17] [%]	%-inhibition at 1 µmol/L, DYRK1B [7, 18] [%]	%-inhibition at 1 µmol/L, HIPK3 [9, 20] [%]	%-inhibition, MST3 [10, 21] [%]	%-inhibition CDC7/ASK [2, 22] [%]	%-inhibition at 1 µmol/L, PKD3 [3, 23] [%]	%-inhibition at 1 µmol/L, PLK1 [6, 24] [%]	%-inhibition at 1 µmol/L, DYRK1B [7, 25] [%]	%-inhibition at 1 µmol/L, FLT3 [8, 26] [%]	%-inhibition at 1 µmol/L, HIPK3 [9, 27] [%]	%-inhibition, MST3 [10, 28] [%]	%-inhibition, PAK2 [1, 29] [%]	%-inhibition at 1 µmol/L, JAK2 [4, 30] [%]	%-inhibition CDK2/CycA2 [5, 31] [%]	further results
O=C(c1ccc(F)c(F)c1Nc1ccc(I)cc1F)N1CC(O)([C@@H]2CCCCN2)C1 [cobimetinib]	-17	5	4.41	1.2	-8	-8	-1.08	2	2.74	4.62	–	–	–	–	–	–	–	–	–	–	%-inhibition at 1 µmol/L, FLT3 [8, 19]: -0.393%
CC(C)(C)c1nc(-c2cccc(NS(=O)(=O)c3c(F)cccc3F)c2F)c(-c2ccnc(N)n2)s1 [dabrafenib]	–	–	–	–	–	–	–	–	–	–	-6	93	-9	29	41	65	0.532	–	–	–	–
Cc1cc(Nc2ncc(Cl)c(Nc3ccccc3S(=O)(=O)C(C)C)n2)c(OC(C)C)cc1C1CCNCC1 [ceritinib]	-4.22	-2.74	46	-5.35	-5.32	-7.57	–	11	7.48	31	–	–	–	–	–	–	–	–	–	–	–
CCc1cc2c(cc1N1CCC(N3CCOCC3)CC1)C(C)(C)c1[nH]c3cc(C#N)ccc3c1C2=O [alectinib]	-29	-0.8	2.17	-3	5.68	-2.55	-1.76	2	3.19	-2.37	–	–	–	–	–	–	–	–	–	–	%-inhibition at 1 µmol/L, FLT3 [8, 19]: 78%
CCCS(=O)(=O)Nc1ccc(F)c(C(=O)c2c[nH]c3ncc(-c4ccc(Cl)cc4)cc23)c1F [vemurafenib]	–	–	–	–	–	–	–	–	–	–	-7	-4.7	-4	-1.74	10	-6	-1.73	13	18	-3	%-inhibition CDK2/CycE1 [5, 32]: -5%
COc1cc(N2CCC(N3CCN(C)CC3)CC2)ccc1Nc1ncc(Cl)c(Nc2ccccc2P(C)(C)=O)n1 [brigatinib]	–	–	–	–	–	–	–	–	–	–	–	–	–	–	–	–	–	–	–	–	%-inhibition, PAK2 [1]: 16%; %-inhibition CDC7/ASK [2]: 0.868%; %-inhibition at 1 µmol/L, PKD3 [3]: 85%; %-inhibition at 1 µmol/L, JAK2 [4]: 90%; %-inhibition CDK2/CycA2 [5]: 53%; %-inhibition CDK2/CycE1 [5]: 30%; %-inhibition at 1 µmol/L, PLK1 [6]: 49%; %-inhibition at 1 µmol/L, DYRK1B [7]: 41%; %-inhibition at 1 µmol/L, FLT3 [8]: 101%; %-inhibition at 1 µmol/L, HIPK3 [9]: 7%; %-inhibition, MST3 [10]: 13%
CC(=O)Nc1cccc(-n2c(=O)n(C3CC3)c(=O)c3c(Nc4ccc(I)cc4F)n(C)c(=O)c(C)c32)c1 [trametinib]	–	–	–	–	–	–	–	–	–	–	-8	2.48	-9	3.34	20	0.0849	1.75	-9	1.75	24	%-inhibition CDK2/CycE1 [5, 32]: 2.59%
CO[C@@H]1[C@H](N(C)C(=O)c2ccccc2)C[C@H]2O[C@]1(C)n1c3ccccc3c3c4c(c5c6ccccc6n2c5c31)C(=O)NC4 [midostaurin]	–	60	–	99	52	22	6	–	–	–	–	–	–	–	–	–	–	–	–	–	–
C[C@@H](Oc1cc(-c2cnn(C3CCNCC3)c2)cnc1N)c1c(Cl)ccc(F)c1Cl [crizotinib]	–	–	–	–	–	–	–	–	–	–	–	–	-3	-3	–	-6	11	5	98	3	%-inhibition CDK2/CycE1 [5, 32]: -14%
